Holding throughout (assay): relative viability (nuclei count vs DMSO), 5 days (fraction); higher = more cells survive
Compound in experiment [1]: COC1=C(C=C(C=C1)C2=CC3=NC=CN3C(=N2)NC4=C(C=CC=N4)C(=O)N)OC [BAY61-3606]
In a few lines: (§1)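 In 1536-well plates, lung cancer cell lines rested overnight at 37 °C before five library-drug doses (not always all listed), √10 apart, were pinned onto vehicle-anchored plates. Nuclei were counted with MetaXpress from 4× Hoechst images taken after 5 days without medium change. Viability compares treated-well with vehicle-well nuclei as a median over plates, and plates needed control CV below 25% plus at least one doubling to pass.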

Compound in experiment [2]: COc1cccc2c1C(=O)c1c(O)c3c(c(O)c1C2=O)C[C@@](O)(C(=O)CO)C[C@@H]3O[C@H]1C[C@H](N)[C@H](O)[C@H](C)O1 [Doxorubicin]
Summed up: as §1

Compound in experiment [3]: COC1=C(C=C(C=C1)C2=CC3=NC=CN3C(=N2)NC4=C(C=CC=N4)C(=O)N)OC [BAY61-3606] + CC(=O)c1c(C)c2cnc(Nc3ccc(N4CCNCC4)cn3)nc2n(C2CCCC2)c1=O [Palbociclib] (partner 0.5 µM)
Summed up:
(§2)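 Relative viability divides the nuclei count in treated wells by that in vehicle wells. Lung cancer cell lines were seeded in 1536-well plates, dosed by pin tool the next day, and fixed and stained after 5 days in one step with final 0.05% Triton X-100, 1% formaldehyde and 1 ug/ml Hoechst. Dosing was a single drug or a fixed anchor-drug dose plus five library-drug doses (not always all listed) in √10 steps, and values are medians of duplicate plates imaged at 4×.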

Compound in experiment [4]: COC1=C(C=C(C=C1)C2=CC3=NC=CN3C(=N2)NC4=C(C=CC=N4)C(=O)N)OC [BAY61-3606] + Cc1cc(Nc2cc(N3CCN(C)CC3)nc(Sc3ccc(NC(=O)C4CC4)cc3)n2)n[nH]1 [Tozasertib] (partner 0.1 µM)
In a few lines: as §2

Here are results for one cell line from the supplement of paper PMC10307832.

As to UMC-11, the relative viability in experiment [1] (0.02 µM) was determined as 1.1; in experiment [1] (0.06325 µM), 1.05; in experiment [1] (0.2 µM), 0.955; in experiment [1] (0.6325 µM) it was 1.06; in experiment [1] (2 µM), 0.991; in experiment [2] (0.001 µM) it was 0.974. The relative viability in experiment [2] (0.003162 µM) is 1.06; in experiment [2] (0.01 µM) it was 0.913; in experiment [2] (0.03162 µM) it was 0.692; in experiment [2] (0.1 µM), 0.715; in experiment [3] (first compound 0.02 µM), 0.352; in experiment [3] (first compound 0.06325 µM), 0.319. The relative viability was 0.304 in experiment [3] (first compound 0.2 µM); 0.361 in experiment [3] (first compound 0.6325 µM); 0.339 in experiment [3] (first compound 2 µM); 0.2 in experiment [4] (first compound 0.02 µM); 0.208 in experiment [4] (first compound 0.06325 µM); 0.207 in experiment [4] (first compound 0.2 µM). The relative viability worked out at 0.201 in experiment [4] (first compound 0.6325 µM) and 0.192 in experiment [4] (first compound 2 µM).
